Usually IC50 stands for the midpoint of a concentration-inhibition curve. A word on the inhibition: it is how much of the control response was suppressed. Low values mean little suppression, high ones strong suppression.

One experiment addresses T1, rat NaPi-2b (Rattus norvegicus, UniProt Q9JJ09).
T1 construct: expressed in transfected cells; host or cells: Xenopus oocytes injected with cRNA
T1 sequence (Q9JJ09 1-695): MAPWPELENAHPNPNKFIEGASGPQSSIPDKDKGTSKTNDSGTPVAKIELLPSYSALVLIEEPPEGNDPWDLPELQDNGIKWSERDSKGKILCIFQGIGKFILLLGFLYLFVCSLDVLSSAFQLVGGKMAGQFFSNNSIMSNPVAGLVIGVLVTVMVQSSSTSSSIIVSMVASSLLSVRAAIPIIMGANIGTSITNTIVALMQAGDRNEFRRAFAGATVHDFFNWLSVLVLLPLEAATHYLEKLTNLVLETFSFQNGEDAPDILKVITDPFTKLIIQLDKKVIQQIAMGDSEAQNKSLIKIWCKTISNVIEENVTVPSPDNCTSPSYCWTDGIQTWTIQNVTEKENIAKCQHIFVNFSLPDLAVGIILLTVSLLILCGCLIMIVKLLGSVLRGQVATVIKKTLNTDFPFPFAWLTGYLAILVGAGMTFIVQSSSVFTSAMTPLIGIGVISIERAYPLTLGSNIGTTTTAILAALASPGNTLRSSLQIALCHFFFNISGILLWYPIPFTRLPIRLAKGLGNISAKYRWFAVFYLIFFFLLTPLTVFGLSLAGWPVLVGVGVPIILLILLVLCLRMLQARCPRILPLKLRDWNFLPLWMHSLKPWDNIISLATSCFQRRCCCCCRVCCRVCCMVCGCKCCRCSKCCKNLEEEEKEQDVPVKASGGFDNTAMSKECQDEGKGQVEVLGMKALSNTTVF
The experiment can be described thus: Sodium-dependent phosphate uptake of Xenopus oocytes which expressed NaPi-2b (32P). Type of experiment: cell-based. The settings on record: Xenopus oocytes expressing rat NaPi-2b, 32P radioactive phosphorus; read-out: IC50 (phosphate uptake inhibitory activity). The gist of the method:
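Oocytes injected with rat NaPi-2b cRNA, cultured 2 d, then 32P uptake measured with compound. Values: % inhibition at 300 and 100 μM, both from one inhibition curve.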
Regarding `O=C(Nc1ccc(Br)cc1C(=O)N/N=C/c1ccc(Cl)c(C(F)(F)F)c1)c1ccc(CNCCCN(CCO)CCO)cc1` [Compound 302, 4-({3-[Bis-(2-hydroxy-ethyl)-amino]-propylamino}-methyl)-N-[4-bromo-2-(4-chloro-3-trifluoromethyl-benzylidene-hydrazinocarbonyl)-phenyl]-benzamide], the IC50 is 1120 nM. Consider `COc1ccc(/C=N/NC(=O)c2c(NC(=O)c3cccc(CN(CC(C)O)CC(C)O)c3)sc(C)c2C)cc1` (stereo not drawn) [Compound 848, 3-{[Bis-(2-hydroxy-propyl)-amino]-methyl}-N-[3-(4-methoxy-benzylidene-hydrazinocarbonyl)-4,5-dimethyl-thiophen-2-yl]-benzamide], for which the IC50 was found to be 2200 nM. In the case of `Cc1ccc(/C=N/NC(=O)c2cc(Br)ccc2NC(=O)c2ccc(CN(CC(C)O)CC(C)O)cc2)cc1C` (stereo not drawn) [Compound 303, 4-{[Bis-(2-hydroxy-propyl)-amino]-methyl}-N-[4-bromo-2-(3,4-dimethyl-benzylidene-hydrazinocarbonyl)-phenyl]-benzamide], the IC50 was determined as 1130 nM.

Consider `O=C(Nc1sc2c(c1C(=O)N/N=C/c1ccc(Cl)c(C(F)(F)F)c1)CCCC2)c1cccc(CN2CCN(CCO)CC2)c1` [Compound 625, N-[3-(4-Chloro-3-trifluoromethyl-benzylidene-hydrazinocarbonyl)-4,5,6,7-tetrahydro-benzo[b]thiophen-2-yl]-3-[4-(2-hydroxy-ethyl)-piperazin-1-ylmethyl]-benzamide], for which the IC50 was less than 3000 nM. Same read-out and setting: then `COc1cccc(/C=N/NC(=O)c2cc(Br)ccc2NC(=O)c2ccc(CN(CC(C)O)CC(C)O)cc2)c1` (stereo not drawn) [Compound 723, 4-{[Bis-(2-hydroxy-propyl)-amino]-methyl}-N-[4-bromo-2-(3-methoxy-benzylidene-hydrazinocarbonyl)-phenyl]-benzamide], with 18000 nM; and `Cc1ccc(/C=N/NC(=O)c2cc(Br)ccc2NC(=O)c2cccc(CSc3ccncc3)c2)cc1` [Compound 198, N-[4-Bromo-2-(4-methyl-benzylidene-hydrazinocarbonyl)-phenyl]-3-(pyridin-4-ylsulfanylmethyl)-benzamide], with 2710 nM; and `Cc1ccc(/C=N/NC(=O)c2cc(OCCN3CCCCC3)ccc2NC(=O)c2cccc(CSCCO)c2)cc1` [Compound 1042, 3-(2-Hydroxy-ethylsulfanylmethyl)-N-[2-(4-methyl-benzylidene-hydrazinocarbonyl)-4-(2-piperidin-1-yl-ethoxy)-phenyl]-benzamide], with 14700 nM.

Regarding `Cc1cccc(/C=N/NC(=O)c2ccccc2NC(=O)c2cc(C)oc2C)c1` [Compound 516, 2,5-Dimethyl-furan-3-carboxylic acid [2-(3-methyl-benzylidene-hydrazinocarbonyl)-phenyl]-amide], the IC50 amounted to 2130 nM. Still for that read-out and setting: then `COc1ccc(/C=N/NC(=O)c2cc(N3CCCC3)ccc2NC(=O)c2cccc(CSCCO)c2)cc1` [Compound 921, 3-(2-Hydroxy-ethylsulfanylmethyl)-N-[2-(4-methoxy-benzylidene-hydrazinocarbonyl)-4-pyrrolidin-1-yl-phenyl]-benzamide], with 1220 nM; and `O=C(Nc1ccc(Br)cc1C(=O)N/N=C/c1cccc(F)c1)c1ccc(CNCCCN(CCO)CCO)cc1` [Compound 301, 4-({3-[Bis-(2-hydroxy-ethyl)-amino]-propylamino}-methyl)-N-[4-bromo-2-(3-fluoro-benzylidene-hydrazinocarbonyl)-phenyl]-benzamide], with 15200 nM. Still for that read-out and setting: the same measure for `O=C(Nc1ccc(Cl)cc1C(=O)N/N=C/c1ccc(Cl)c(C(F)(F)F)c1)c1ccccn1` [Compound 364, Pyridin-2-carboxylic acid [4-chloro-2-(4-chloro-3-trifluoromethyl-benzylidene-hydrazinocarbonyl)-phenyl]-amide]: less than 1000 nM.

The same experiment, now with this note: phosphate uptake, oocytes expressing rat NaPi-2b; 300 μM, determined from inhibition curve.
Turning to `Cc1cccc(C=NNC(=O)c2cc(Br)ccc2NC(=O)c2ccc(C(C)(C)C)cc2)c1` [Compound 248, N-[4-Bromo-2-(3-methyl-benzylidene-hydrazinocarbonyl)-phenyl]-4-tert-butyl-benzamide], the inhibition at 300 µM was determined as 30.3%.

For the origin of these results see patent US8134015B2, “Compound inhibiting in vivo phosphorous transport and medicine containing the same” (Kyowa Hakko Kirin Co., Ltd., priority 2003, dated 2012).
